Laboratory results taken from US9115385B2, “Methods and compositions for topoisomerase I modulated tumor suppression” (RG BIOPHARMA, LLC, priority 2006, dated 2015).

Columns and labels:
[1] = molecular target: T1, purified CK2 holoenzyme (Homo sapiens, UniProt P68400); assay: in vitro kinase assay of purified CK2 holoenzyme; format: biochemical; details: 10 nM
T1 construct: purchased Promega, Madison, Wis
Source text: (§1) P=supercoiled plasmid only.

[2] = molecular target: T2, CK2α catalytic subunit (Homo sapiens, UniProt P68400); assay: in vitro kinase assay of purified CK2α catalytic subunit; format: biochemical; details: 10 nM
T2 construct: purchased Active Motif, Carlsbad, Calif
T2 sequence (P68400 whole entry): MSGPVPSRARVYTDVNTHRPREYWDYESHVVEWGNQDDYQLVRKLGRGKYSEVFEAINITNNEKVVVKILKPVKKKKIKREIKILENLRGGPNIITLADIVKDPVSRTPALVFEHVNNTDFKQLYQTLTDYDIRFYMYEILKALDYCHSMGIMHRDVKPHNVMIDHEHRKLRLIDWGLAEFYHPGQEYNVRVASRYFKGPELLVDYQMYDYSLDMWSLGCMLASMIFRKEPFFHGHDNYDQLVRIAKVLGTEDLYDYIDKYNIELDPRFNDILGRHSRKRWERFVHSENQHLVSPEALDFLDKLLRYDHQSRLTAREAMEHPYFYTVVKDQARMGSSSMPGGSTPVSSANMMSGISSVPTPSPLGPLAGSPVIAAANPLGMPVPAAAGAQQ
Source text: as §1

[3] = molecular target: T3, purified cdk1 (Homo sapiens, UniProt P06493); assay: in vitro kinase assay of purified cdk1; format: biochemical; details: 10 nM
T3 construct: purchased Enzo Life Sciences, Farmingdale, N.Y
T3 sequence (P06493 whole entry, species assumed): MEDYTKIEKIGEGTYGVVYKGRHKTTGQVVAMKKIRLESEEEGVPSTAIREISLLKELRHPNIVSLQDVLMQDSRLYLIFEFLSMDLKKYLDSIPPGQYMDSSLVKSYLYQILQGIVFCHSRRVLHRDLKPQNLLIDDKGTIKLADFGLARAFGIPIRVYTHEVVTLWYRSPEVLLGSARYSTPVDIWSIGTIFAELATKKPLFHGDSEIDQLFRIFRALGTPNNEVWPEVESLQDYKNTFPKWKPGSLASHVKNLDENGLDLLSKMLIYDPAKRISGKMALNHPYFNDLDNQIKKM
T3 sequence (P14635 whole entry partner, species assumed): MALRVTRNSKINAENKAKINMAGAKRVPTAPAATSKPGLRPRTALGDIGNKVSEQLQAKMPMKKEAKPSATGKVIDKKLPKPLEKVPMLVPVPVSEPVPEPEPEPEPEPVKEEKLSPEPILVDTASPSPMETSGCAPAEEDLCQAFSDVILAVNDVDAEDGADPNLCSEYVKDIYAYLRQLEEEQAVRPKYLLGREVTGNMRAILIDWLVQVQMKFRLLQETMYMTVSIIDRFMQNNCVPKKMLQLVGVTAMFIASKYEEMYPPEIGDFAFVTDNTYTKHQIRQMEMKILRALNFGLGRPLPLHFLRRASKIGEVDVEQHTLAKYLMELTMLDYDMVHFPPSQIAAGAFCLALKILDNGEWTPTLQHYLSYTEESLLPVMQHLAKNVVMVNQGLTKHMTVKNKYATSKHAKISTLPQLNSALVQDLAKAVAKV
Source text: as §1

[4] = tested on: CK2; assay: CK2 activity in nuclear extracts of treated H358 or H23 cells; format: cell-based, human
[5] = molecular target: T4, CK2 protein (α subunit) (Homo sapiens, UniProt P68400); assay: Western analysis of CK2 protein in lysates of treated cells; format: cell-based; details: H23 cells, 72 hours
T4 construct: endogenous in cells; host or cells: H23 cells (lysates)
T4 sequence (P68400 whole entry): as the sequence (P68400 whole entry) above

[6] = tested on: ARF/topoisomerase I complex; assay: topo I immunoprecipitation followed by ARF Western in treated cells; format: cell-based, human; details: H23 cells treated with CK2 activator
[7] = tested on: topoisomerase I; assay: topoisomerase I plasmid relaxation assay with nuclear extracts of treated cells; format: cell-based, human; details: 72 hours after treatment
Description: Topoisomerase I Assays: Assays were carried out using the Topoisomerase I Assay Kit (Topogen, Florida), according to the instructions provided with the kit and using the high salt nuclear extracts prepared as described above. […] The reaction was stopped by adding stop loading dye supplied in the kit and electrophoresed on a 1% agarose/TAE (10 mM TRIS-acetate/1 mM EDTA) gel until the dye front had reached the bottom of the gel. The gel was then stained for 20 minutes in 0.5 μg/mL ethidium bromide, destained in deionized water for 30 minutes, and electrophoresed for an additional hour to enhance band visibility. The gel was photographed and band intensities were analyzed digitally using a Kodak digital camera and analysis software. Some assays were carried out with alkaline phosphatase-treated extracts, prepared as described below, or in the presence of ARF or ARF1β thioredoxin fusion proteins (3, 9, 27 ng), prepared as described above (see pull-down assays).

[8] = tested on: H23 cells; assay: cell viability assay with camptothecin, H23; format: cell-based, human
Description: (§2) Control cells received no pretreatment. […] CK2 activator treatment was for the duration of the assay. Cell viability was scored 3 days post-start of camptothecin treatment.
(§3) Viability assays were performed 24 hours post-vector treatment by exposing cells for 24 hours to increasing doses of camptothecin (a topoisomerase I inhibitor) in triplicate in a 96-well viability assay, and assaying them for viability 5 days post-start of vector treatment (FIG. 5B). For each growth curve, cell viabilities were normalized to the viability of cells treated with vector only (no camptothecin), to enable a direct visualization of the sensitization effect.
Studies of a large panel of cell lines have shown that cell lines with overexpressed CK2 (FIGS. 11B1-B3 and 11C1-C3) display hyper serine phosphorylation of topo I (FIG. 11D) that correlates with sensitivity to camptothecin (FIG. 11A). […] Cells were plated at 2000 cells per well and allowed to attach. Triplicate wells were then treated with the indicated doses of camptothecin for 18 hours, and monitored for viability 3 days post-start of treatment. Viability is represented as a % of control, untreated, cell viability. Referring to FIGS. 11B1-B3, PKC (B1), cdk1 (B2), and CK2 (B3) levels in cancer cell lines: Cell lysates were prepared from the indicated cancer cell lines and assayed for enzymatic activities, or evaluated by Western analysis for total PKC, cdk1, or CK2 protein levels. Actin levels served as a control (same control for PKC, cdk1, and CK2). Referring to FIGS. 11C1-C3 PKC (C1), cdk1 (C2), and CK2 (C3) levels in normal cell lines, compared to H358 and H23: Cell lysates were prepared from the indicated cell lines and evaluated as before. Numbers below Western blots indicate digital reading of band intensities of PCK, cdk1, or CK2 Western blots, relative to H358. Referring to FIG. 11D, topo-I immunoprecipitation followed by topo-I Western (top row) or phosphoserine Western (bottom row). Numbers below Western blot are digital readings of ser-P band intensities relative to H358.

[9] = tested on: topo I phosphoserine 506 epitope; assay: Western of phosphoserine 506 epitope of topo I in treated cells; format: cell-based, human
[10] = tested on: purified PKC; assay: in vitro kinase assay of purified PKC; details: 10 nM
[11] = tested on: CK2α transcription; assay: RT-PCR of CK2α mRNA in treated H23 cells; details: 10 nM, 3 days
[12] = molecular target: T5, cdk1 (Homo sapiens, UniProt P06493); assay: endogenous cdk1 activity in lysates of treated H23 cells; format: cell-based; parameters: endogenous in cells; host or cells: H23 cells (lysates); details: H23 cells treated with 10 nM, three day assay
Source text: as §1
Target sequence in this assay (P06493 whole entry): as the sequence (P06493 whole entry, species assumed) above
Target sequence in this assay (P14635 whole entry partner): as the sequence (P14635 whole entry partner, species assumed) above

[13] = tested on: PKC; assay: endogenous PKC activity in lysates of treated H23 cells; details: H23 cells treated with 10 nM, three day assay
[14] = tested on: topo I serine phosphorylation; assay: topo I immunoprecipitation followed by phosphoserine Western in treated cells; details: digital quantitation of band intensities
[15] = tested on: H358 cells; assay: cell viability assay with camptothecin, H358; format: cell-based, human
Description: as §2, §3
(§4) Studies of a large panel of cell lines have shown that cell lines with overexpressed CK2 (FIGS. 11B1-B3 and 11C1-C3) display hyper serine phosphorylation of topo I (FIG. 11D) that correlates with sensitivity to camptothecin (FIG. 11A). […] Triplicate wells were then treated with the indicated doses of camptothecin for 18 hours, and monitored for viability 3 days post-start of treatment. […] Referring to FIGS. 11B1-B3, PKC (B1), cdk1 (B2), and CK2 (B3) levels in cancer cell lines: Cell lysates were prepared from the indicated cancer cell lines and assayed for enzymatic activities, or evaluated by Western analysis for total PKC, cdk1, or CK2 protein levels. […] Numbers below Western blot are digital readings of ser-P band intensities relative to H358.

[16] = tested on: PKC; details: cited from earlier work
[17] = molecular target: T5, cdk1; details: cited from earlier work
Target sequence in this assay (P06493 whole entry, species assumed): as the sequence (P06493 whole entry, species assumed) above
Target sequence in this assay (P14635 whole entry partner, species assumed): as the sequence (P14635 whole entry partner, species assumed) above

[18] = tested on: ARF; assay: Western analysis of ARF protein levels in treated H358 cells; format: cell-based, human; details: 72 hours post-siRNA
Source text: FIG. 5B is a series of graphs showing H358 and PC-3 cell viabilities assayed 5 days post-vector treatment (adenoviral vector, moi 20 pfu/cell, or siRNA), and 4 days post treatment with increasing doses of camptothecin. Viability is expressed as a percent of no-camptothecin control for each vector or siRNA treatment. Results represent average of triplicate wells, with standard deviations indicated. Treatments: Adp14 (ARF full length ▪); Ad1β (ARF N-term ◯); siRNA control (▾); no vector (●); siRNA exon 2 (∇). […] Digital analyses of ARF levels are shown below ARF lanes. (lower panel) H358 cell viability assay following the indicated treatments. Viability was measured 3 days post-start of camptothecin treatment.
Adenoviral vectors were used to achieve ectopic overexpression of full-length ARF (Adp14) or ARF-N-terminal domain (Ad1β), and RNA interference to down-regulate endogenous expression of ARF. As shown by the Western analysis of H358 cells in FIG. 5A, ARF levels increased by some 3-fold, as determined by digital analysis of band intensities, by 48 hours post-treatment with Adp14 (moi, 20 pfu/cell, FIG. 5A, lane 1), relative to Ad1β-treated cells (FIG. 5A, lane 2) or untreated cells (FIG. 5A, lane 4). […]

[19] = tested on: HT29 cells; assay: cell viability assay with camptothecin, HT29; format: cell-based, human; details: viability 3 days after treatment
Source text: FIG. 7 is a series of graphs showing the correlation of serine phosphorylation, ARF/topoisomerase I complex formation and camptothecin sensitivity. FIGS. 7A-C show the relative amounts of (A) serine phosphorylation of topoisomerase I, (B) total topoisomerase I, and (C) ARF-topoisomerase I complex following topoisomerase I immunoprecipitation in the indicated cell types. FIG. 7D is a graph showing the viability of the indicated cell types 3 days after treatment with camptothecin.
as §4, with “Referring” for “Numbers below Western blot are digital readings of ser-P band intensities relative”, “FIGS. 11C1-C3 PKC (C1), cdk1 (C2), and CK2 (C3) levels in normal cell lines, compared to H358 and H23: Cell lysates were prepared from the indicated cell lines and evaluated as before. […]” for “H358.”

[20] = tested on: Hela cells; assay: cell viability assay with camptothecin, Hela; format: cell-based; details: compared with H23 and H358
Source text: FIG. 8A is a graph showing the viability of the indicated cell types 3 days after treatment with camptothecin. FIG. 8B is an electrophoretic gel of a topoisomerase I immunoprecipitation followed by an ARF and topoisomerase I Western analysis. FIG. 8C is an electrophoretic gel of a topoisomerase I immunoprecipitation and a phosphoserine Western analysis. FIG. 8D is an ARF Western analysis. […] The sensitivity of Hela cells to topoisomerase I inhibitors is also intermediate to that of […] and H23 cells.
The assay in FIG. 8A was carried out as in FIG. 7D. ARF/topoisomerase I complex formation was examined using the co-immunoprecipitation assay described for FIGS. 3A and 3C. A reduced but detectable level of ARF/topoisomerase I complex formation in Hela cells was observed, compared to H358 cells (FIG. 8B). ARF/topoisomerase I complex formation in H23 cells was undetectable (FIG. 8B), confirming previous experiments (FIG. 1C).

T1 sequence (P68400 whole entry): as the sequence (P68400 whole entry) above
T1 sequence (P67870 whole entry partner): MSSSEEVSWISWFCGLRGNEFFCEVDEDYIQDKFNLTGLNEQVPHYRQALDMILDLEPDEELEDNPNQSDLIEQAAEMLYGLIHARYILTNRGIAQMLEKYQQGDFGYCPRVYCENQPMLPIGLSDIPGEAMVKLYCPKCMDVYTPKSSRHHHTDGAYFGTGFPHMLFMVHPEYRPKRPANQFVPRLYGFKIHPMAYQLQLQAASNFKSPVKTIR

With CCn1cnc(C(N)=O)c1C(N)=O [CK2 activator] the “stimulation of purified CK2 holoenzyme activity” value [1] was roughly 6 fold, the “stimulation of CK2α catalytic subunit activity” value [2] was roughly 6 fold and the “effect on purified cdk1 activity” value [3] was “no effect”. The “increase in CK2 activity relative to untreated cells” value ([4]; H23 cells, 10 nM for duration of assay) was 4 fold, the “increase in CK2 activity” value ([4]; H358 cells, similar treatment (data not shown)) was 10% and the CK2 protein accumulation [5] was “enhances the accumulation of CK2 protein”. The “p14ARF/topo I complex formation” value [6] was “complex formation occurs”, the “conversion of supercoiled plasmid to relaxed form by nuclear extract” value ([7]; H23 cells, 0.75 μg lysates protein per reaction) was “converts virtually all of the supercoiled form to relaxed form” and the “effect on cell viability (activator alone)” value ([8]; 10 nM) was “no effect on cell viability”. The “change of cellular response to camptothecin” value ([8]; 10 nM activator for duration of assay, camptothecin 18 hours, 3-day viability) was “more sensitive to camptothecin”, the “lowest dose that could activate CK2 while having no effect on cell viability” value ([8]; range of 5-100 nM tested) was 10 nM and the “cellular levels of the phosphoserine 506 epitope” value ([9]; H23 cells treated as in FIG. 13B) was “induces cellular levels of the phosphorylated epitope”. For the same molecule, the “effect on purified PKC activity” value [10] was “no effect”, the CK2α transcription [11] was “not CK2α transcription” and the “effect on endogenous cdk1 activity” value [12] was “no effect”. For the same molecule, the “effect on endogenous PKC activity” value [13] was “no effect” and the “increase in topo I phosphorylation relative to untreated H23 cells” value ([14]; H23 cells) was roughly 4.7 fold.
In the case of Brc1c(Br)c(Br)c2[nH]nnc2c1Br [TBB, 4,5,6,7-tetrabromobenzotriazole], the “conversion of supercoiled plasmid to relaxed form by nuclear extract” value ([7]; H358 cells, 0.75 μg lysate per reaction) is reported as “essentially none is converted”, the “change of cellular response to camptothecin” value ([15]; pretreatment then camptothecin 18 hours, 3-day viability) is reported as “more resistant to camptothecin” and the “cellular levels of the phosphoserine 506 epitope” value ([9]; H358 cells treated as in FIG. 13A) is reported as “suppresses cellular levels of the phosphoserine epitope”. For the same molecule, the “effect on PKC” value [16] was “minimal effects”, the “effect on cdk1” value [17] was “minimal effects” and the “topo I serine phosphorylation, % of untreated H358 cells” value ([14]; H358 cells) was “about 10%”.
With “siRNA to exon 1β: siRNA to the exon 1β region of ARF (SEQ ID NO: 4 and 5) (chain 1 GGGUUUUCGUGGUUCACAUTT; chain 2 AUGUGAACCACGAAAACCCTC; chemistry not given here)” the “sensitivity to camptothecin after exon 1β siRNA with or without Adp14” value ([15]; viability 5 days post-start of vector treatment) was “decreased sensitivity to camptothecin” and the “ARF protein level relative to untreated cells” value [18] was “about 0.25”.
In the case of CC[C@@]1(O)C(=O)OCc2c1cc1n(c2=O)Cc2cc3ccccc3nc2-1 [camptothecin], the response to camptothecin [8] is reported as “greatly reduced response”, the “sensitivity to camptothecin compared with H358 and PC-3” value ([8]; viability 3 days after treatment) is reported as “more resistant” and the “sensitivity to camptothecin compared with H358 and PC-3” value [19] is reported as “more resistant”. For the same molecule, the sensitivity to camptothecin [20] was “intermediate to that of H23 and H358”.
